Reference: EP1714978A1, “Peptides useful for diagnosis and therapy of tumors” (Deutsches Krebsforschungszentrum Stiftung des öffentlichen …, priority 2005, dated 2006)

What was measured:
[1] = tested on: HeLa cells (cervix carcinoma cell line); assay: In vitro binding/uptake of ^125I-labelled FROP-1 by HeLa cells; conditions: ^125I-labelled FROP-1, about 1 x 10^6 cpm per well, 1 hour, RPMI 1640 without FCS and BSA
Experimental: (§1) • (A) Mice: Female 6-week-old BALB/c nu/nu mice were obtained from Charles River WIGA (Sulzfeld, Germany) and housed in VentiRacks. For inoculation of the tumors in nude mice a Matrigel-matrix/cell suspension (5×10^6 cells) was injected subcutaneously into the anterior region of the mouse trunk. Tumors were grown up to a size of approximately 1.0 cm^3. All animals were cared for according to the German animal guidelines. • (B) Peptide synthesis and labeling: The FROP-1-Peptide (EDYELMDLLAYL) was obtained by solid-phase peptide synthesis using Fmoc-chemistry. The radiolabeling was achieved by iodination using the chloramine-T method (33). […] The solution was centrifuged 5 min at 13,000 rpm and the cleared lysate was analyzed by HPLC. • (D) In vitro binding assay: 300,000 cells were seeded into 6-well plates and cultivated for 24 hours. […] Radioactivity was determined with a gamma counter and calculated as percent applied dose per 10^6 cells. […] The organs were removed, weighed and the radioactivity was determined using an automated NaI(Tl) well counter (CobraII, Canberra Packard, Meriden, USA). The percentage of injected dose per gram of tissue was calculated.
(§2) 2 x 10^5 cells of various tumor cell lines were seeded into 6-well plates. […] The radioactivity of lysed cells was determined with a gamma counter. […]

various tumor cell lines = assay: Competition of ^125I-labelled FROP-1 uptake by unlabelled FROP-1, various tumor cell lines; format: binding; conditions: in the presence of 10^-4 unlabelled FROP-1 as a competitor, 1 hour
Experimental: as §1, §2

[2] = tested on: FRO82-2 cells (follicular thyroid cancer cell line); assay: In vitro binding/uptake of ^125I-labelled FROP-1 by FRO82-2 cells; design: species or system human; conditions: ^125I-labelled FROP-1, about 1 x 10^6 cpm per well, 1 hour, RPMI 1640 without FCS and BSA
Experimental: as §1, §2

[3] = tested on: DU-145 (prostate carcinoma cell lines); assay: In vitro binding/uptake of ^125I-labelled FROP-1 by DU-145 cells; conditions: ^125I-labelled FROP-1, about 1 x 10^6 cpm per well, 1 hour, RPMI 1640 without FCS and BSA
Experimental: as §1, §2

FRO82-2 tumor = assay: Organ distribution in tumor-bearing nude mice; format: in vivo, Balb/c nu/nu mice; conditions: summary statement; ^131I-FROP-1 i.v., values only in Figure 6
Experimental: as §1, with “(33). The labeled peptide was purified by HPLC on a LiChrosorb RP-select B 5 µm, 250 ×x 4 mm column (Merck, Darmstadt, Germany) using TRIS/phosphate and methanol as eluents.” for “(33).”, “calculated. […]” for “calculated.”

[4] = tested on: MCF-7 cells (mamma carcinoma cell line); assay: In vitro binding/uptake of ^125I-labelled FROP-1 by MCF-7 cells; conditions: ^125I-labelled FROP-1, about 1 x 10^6 cpm per well, 1 hour, RPMI 1640 without FCS and BSA
Experimental: as §1, §2

[5] = tested on: PC-3 (prostate carcinoma cell lines); assay: In vitro binding/uptake of ^125I-labelled FROP-1 by PC-3 cells; conditions: ^125I-labelled FROP-1, about 1 x 10^6 cpm per well, 1 hour, RPMI 1640 without FCS and BSA
Experimental: as §1, §2

FROP-1: novel 12 amino acid peptide from phage display, aa sequence EDYELMDLLAYL
binding of FROP-1 to HeLa cells [1]: efficient binding
binding can be competed (various tumor cell lines): 95%
binding of FROP-1 to FRO82-2 cells [2]: efficient binding
binding of FROP-1 to DU-145 [3]: efficient binding
accumulation in tumors in vivo (FRO82-2 tumor): accumulates in vivo at/in tumors
binding of FROP-1 to MCF-7 cells [4]: efficient binding
binding of FROP-1 to PC-3 [5]: efficient binding
